Calls of active or inactive are those of the source. The rule behind the calls is not given here.
Tests used:
[1] = species: Sus scrofa; test: Inhibition of porcine MAP-rich tubulin polymerization at 20 uM measured every 30 secs for 30 mins
[2] = test system: MCF7; test: Growth inhibition of human MCF7 cells after 48 hrs by MTT assay; format: functional, cell-based; details: MCF7, 48 h
[3] = test system: NCI/ADR-RES; test: Growth inhibition of human MCF7/ADR cells after 48 hrs by MTT assay; format: functional, cell-based
[4] = Resistance factor, ratio of IC50 for human MCF7/ADR cells to IC50 for human MCF7 cells; format: functional
[5] = test system: MDA-MB-231; test: Growth inhibition of human MDA-MB-231 cells after 48 hrs by MTT assay; format: functional, cell-based; details: MDA-MB-231, 48 h
[6] = Growth inhibition of human MDA-MB-231/ADR cells after 48 hrs by MTT assay; format: functional; details: MDA-MB-231, 48 h
[7] = Resistance factor, ratio of IC50 for human MDA-MB-231/ADR cells to IC50 for human MDA-MB-231 cells; format: functional
[8] = test system: MCF7; test: Induction of apoptosis in human MCF7 cells at 6 uM after 24 hrs by Annexin V-FITC/PI double staining based flow cytometry relative to control; format: functional
[9] = test system: MCF7; test: Induction of apoptosis in human MCF7 cells at 12 uM after 24 hrs by Annexin V-FITC/PI double staining based flow cytometry relative to control; format: functional
[10] = test system: MCF7; test: Induction of apoptosis in human MCF7 cells at 24 uM after 24 hrs by Annexin V-FITC/PI double staining based flow cytometry relative to control; format: functional
[11] = test system: NCI/ADR-RES; test: Induction of apoptosis in human MCF7/ADR cells at 6 uM after 24 hrs by Annexin V-FITC/PI double staining based flow cytometry relative to control; format: functional
[12] = test system: NCI/ADR-RES; test: Induction of apoptosis in human MCF7/ADR cells at 12 uM after 24 hrs by Annexin V-FITC/PI double staining based flow cytometry relative to control; format: functional
[13] = test system: NCI/ADR-RES; test: Induction of apoptosis in human MCF7/ADR cells at 24 uM after 24 hrs by Annexin V-FITC/PI double staining based flow cytometry relative to control; format: functional
[14] = test system: NCI/ADR-RES; test: Downregulation of P-gp protein expression level in human MCF7/ADR cells assessed as P-gp protein level up to 24 uM by Western blot analysis (reference value: 0.67); format: functional
[15] = test system: NCI/ADR-RES; test: Downregulation of P-gp expression level in human MCF7/ADR cells assessed as P-gp mRNA level up to 24 uM by qRT-PCR analysis (reference value: 17.5); format: functional
[16] = test system: NCI/ADR-RES; test: Downregulation of P-gp mRNA level in human MCF7/ADR cells by qRT-PCR analysis; format: functional, cell-based
[17] = test system: MCF7; test: Downregulation of P-gp protein expression level in human MCF7 cells assessed as P-gp protein level up to 24 uM by Western blot analysis; format: functional
[18] = species: Homo sapiens; test: Inhibition of P-gp in human MCF7/ADR cells assessed as increase in intracellular Rh123 accumulation at 24 uM after 2 hrs by flow cytometry; format: cell-based
[19] = biological target: Tubulin; test: Inhibition of tubulin (unknown origin) polymerization preincubated for 15 mins followed by GTP addition measured for 20 mins by turbidimetric analysis; format: protein-complex assay, Homo sapiens
[20] = biological target: T1, Tubulin (Homo sapiens) (UniProt P68371+Q9H4B7+P0DPH7+P68366+Q13509+Q71U36+P04350+Q3ZCM7+P07437+P68363+Q9BQE3+Q6PEY2+Q13885+Q9BVA1+Q9BUF5); test: Displacement of [3H]colchicine from tubulin (unknown origin) at 1 uM after 10 mins relative to control; format: protein-complex assay
[21] = biological target: T1, Tubulin (Homo sapiens); test: Displacement of [3H]colchicine from tubulin (unknown origin) at 5 uM after 10 mins relative to control; format: protein-complex assay
[22] = species: Sus scrofa; test: Inhibition of porcine MAP-rich tubulin polymerization measured every 30 secs for 30 mins
[23] = species: Homo sapiens; details: 10 uM
Description: Inhibition of P-gp in human MCF7/ADR cells assessed as increase in intracellular Rh123 accumulation at 10 uM after 2 hrs by flow cytometry

In the case of `COc1cc2c(c(OC)c1OC)-c1ccc(OC)c(=O)cc1[C@@H](NC(C)=O)CC2`, the inhibition [1] is reported as “Active”.

In the case of `COc1cc2nc3occc3c(OC)c2cc1OC` [KOKUSAGININE], the IC50 [2] is reported as 7.23 µM, the IC50 [3] is reported as 4.62 µM and the “Ratio IC50” value [4] is reported as 0.64. The IC50 [5] was 9.01 µM, the IC50 [6] was 10.2 µM and the “Ratio IC50” value [7] was 1.13. The Activity [8] was 12.08%, the Activity [9] was 21.63% and the Activity [10] was 39.52%. For the same compound, the Activity [11] was 28.16%, the Activity [12] was 45.35% and the Activity [13] was 63.29%. The Activity [14] was 0.19, the Activity [15] was 6.4 and the Activity [16] was “Dose-dependent effect”. The Activity [17] was 0.02 - 0.09, the inhibition [18] was “Active” and the IC50 [19] was 0.82 µM. The inhibition [20] was 92%, the inhibition [21] was 98% and the inhibition [22] was “Dose-dependent effect”.

With `COc1ccc(CCN(C)CCCC(C#N)(c2ccc(OC)c(OC)c2)C(C)C)cc1OC` (stereo not drawn) the inhibition [23] was “Active”.

With `COc1cccc2c1C(=O)c1c(O)c3c(c(O)c1C2=O)C[C@@](O)(C(=O)CO)C[C@@H]3O[C@H]1C[C@H](N)[C@H](O)[C@H](C)O1.Cl` [DOXORUBICIN HYDROCHLORIDE] the IC50 [2] was 1.72 µM, the IC50 [3] was 50.7 µM and the “Ratio IC50” value [4] was 29.5. The IC50 [6] was 49.8 µM and the “Ratio IC50” value [7] was 22.72.

Reference: ChEMBL document CHEMBL4118272, “The inhibitory effect of kokusaginine on the growth of human breast cancer cells and MDR-resistant cells is mediated by the inhibition of tubulin assembly” (Bioorg Med Chem Lett, 2018)
